This note sets out measurements from patent US20040157911A1, “Storage-stable and bio-stable formulations of ace inhibitors, and methods for preparation thereof” (priority 1999, published 2004).

The nature of this series: Dispersion time of enalapril maleate in alcohol/water liquids. The format is physicochemical. The note with it: for Dispersion Time: 50 g in 200 mL, 200 rpm. The procedure:
Enalapril maleate (50 grams) was added to 200 mL of liquid. The liquid ranged from 100% alcohol/0% water to 0% alcohol/100% water (see Table 1). The solutions were stirred at 200 rpm at room temperature using a Lightning Mixer (General Signal Controls, Rochester, N.Y.) with the mixing blade 1 cm from the bottom of the beaker. Enalapril maleate was considered “dispersed” when all of the drug powder was wetted and had become immersed in the liquid.

Structures can show the parent of a compound that is named as a salt.

For the compound `CCOC(=O)[C@H](CCc1ccccc1)N[C@@H](C)C(=O)N1CCC[C@H]1C(=O)O` [enalapril maleate], the “Time to full dispersion in alcohol” value (20 mg/ud in SD3A denatured alcohol (50 mg/ud), stirring at 500 rpm (preparation of Formula I)) is on record as “less than 10 seconds”. The “Dispersion Time” value reads like this: (25%/75% alcohol/water, full value 1 minute, 15 seconds (seconds in next row)) 60 s; (50%/50% alcohol/water, room temperature) 45 s; (75%/25% alcohol/water, room temperature) 30 s; (85%/15% alcohol/water, room temperature) 28 s; (100%/0% alcohol/water, room temperature) 27 s.
